{"source": "patent US12138301B2", "about": "“Compounds including a mutant KRAS sequence and a lipid and uses thereof” (Elicio Therapeutics, Inc., priority 2018, dated 2024)", "key": {"[1]": {"test_system": "splenocytes", "experiment": "ELISpot analysis for IFNγ on splenocytes, higher antigen concentration and bi-weekly or weekly dosing (Example 4)", "type": "in vivo, C57BL/6 mice", "settings": "peptide 50 μg s.c.; for KRas-specific CD8+ T-cell response (9mers): restimulation with 9mers; for CD8+ or CD4+ T-cell response (18mer): restimulation with 18mer", "procedure": "The concentration of antigen was increased from 20 μg to 50 μg and bi-weekly (bw) or weekly (w) dose intervals were tested.\nThe experimental design included the following 5 groups of C57BL/6 mice immunized with the listed compounds (n=5 for each group): • 1. KRas 12D+CpG1826 (bw) • 2. KRas 12D+CpG1826 (w) • 3. aKRas 12D+aCpG1826 (bw) • 4. aKRas 12D+aCpG1826 (w) • 5. No immunization\n(§1) The adjuvant as well as peptide stock solutions were dissolved in H2O. Final injections were diluted with 1×PBS.\n50 μg in 100 μl were used for each injection.\n(§2) The aCpG sequence used was the CpG1826 sequence (5′-[…]-3′; SEQ ID NO:10) with two guanines added at the 5′ end (5′-gg […]-3′; SEQ ID NO:11) at a concentration of 5 nmol for each 100 μl injection.\nPrimer immunizations were given subcutaneously (s.c.) into the tail base with one booster dose after 2 weeks.\nELISpot analysis for IFNγ, and CBA (cytometric bead array) analysis for IL6, I-10, IL12, TNFα, IFNγ, and MCP1 was performed on splenocytes, using standard protocols, 7 days after booster dose administration.\nSpecific mutant peptides were given only to the mice that were immunized with the corresponding 18mer.\nSeparate plates were prepared for either short (9mer and 10mer) or long (17mer and 18mer) peptide stimulations. Cells from “No immunization” control mice were stimulated with all stimuli."}, "[2]": {"test_system": "KRAS-specific splenic T-cells", "experiment": "Summary of mouse immunogenicity studies: KRAS-specific splenic T-cells by ELISPOT and cytokine bead array (Example 5)", "type": "in vivo, C57BL/6 mouse", "settings": "subcutaneous administration; identified by ELISPOT and cytokine bead array"}, "[3]": {"test_system": "PBMCs/Splenocytes", "experiment": "ICS for IFNγ on PBMCs and ELISpot for IFNγ on splenocytes of immunized HLA-A2.1 transgenic mice (Example 3)", "type": "in vivo, B6 HLA-A2.1 Tg mice", "settings": "peptide 20 μg s.c., two boosters at two-week intervals, HLA-A2.1 Tg mice", "text": "B6 mice transgenic for the human HLA gene, A2.1, were immunized either with the soluble or amphiphile-conjugated forms of the KRas G12D antigen, as well as adjuvant (CpG or aCpG). The A2.1 allele is known to mount responses to the KRas peptides in humans.\nThe experimental design included the following 4 groups of B6 HLA-A2.1 Tg mice immunized with the listed compounds (n=5 for each group): • 1. KRas wild-type+CpG • 2. KRas 12D+CpG • 3. aKRas 12D+aCpG • 4. No immunization\nas §1\nThe aKRas peptides used were 18mer sequences of mutant sequences with a G12D substitution (amino acids 4-21 of wild-type 4 […] (SEQ ID NO:9)). 20 μg in 100 μl were used for each injection.\nas §2\nThe vaccine was administered subcutaneously to female mice bilaterally at the tail base at 50 μl per side. Two booster doses were given in two-week intervals.\nIntracellular cytokine staining (ICS) analysis for IFNγ on peripheral blood mononuclear cells (PBMCs) and ELISpot analysis for IFNγ on splenocytes was performed, using standard protocols, 7 days after the second and third booster dose, respectively.\nPBMCs/Splenocytes (10^6 cells/well and 2×10^6 cells/well) were activated with 5 μg/well of either SEQ ID NO:1 or one of SEQ ID NOS:12-20 as shown below:\nSpecific mutant peptides are given only to the mice that were immunized with the corresponding 18mer."}, "[4]": {"test_system": "splenocytes", "experiment": "ELISpot analysis for IFNγ on splenocytes of immunized mice (Example 1, KRas G12D)", "type": "in vivo, C57BL/6 mice", "settings": "splenocytes activated with G12D 18mer 5 μg/well", "procedure": "The efficacy of soluble-KRas (KRas) or amphiphile-KRas (aKRas) (FIG. 6) mutant sequences and an amphiphile-CpG adjuvant (aCpG) to elicit an immune response was determined.\nThe experimental design included the following 4 groups of C57BL16 mice immunized with the listed compounds (n=5 for each group): • 1. KRas G12D+aCpG • 2. aKRas G12D+aCpG • 3. KRas G12D+pIC • 4. No immunization\nPolyIC (pIC) was used as a benchmark adjuvant control.\nThe adjuvant, as well as peptide stock, solutions were dissolved in H2O. Final injections were diluted with 1×PBS (phosphate buffered saline).\nThe aKRas peptides used were 18mer sequences of mutant sequences with a G12D substitution (amino acids 4-21 of wild-type→YKLVVVGAGGVGKSALTI (SEQ ID NO:9)). 20 μg in 100 μl were used for each injection.\nThe aCpG sequence used was the CpG1826 sequence (5′-[…]-3′; SEQ ID NO:10) with two guanines added at the 5′ end (5′-gg […]-3′; SEQ ID NO:11) at a concentration of 5 nmol for each 100 μl injection. CpG1826 is an optimal mouse sequence while CpG7909 is optimal for humans and poorly active in mice. CpG1826 and CpG7909 are in the same CpG class (class B) and generally have similar activity profiles in their respective species.\n50 μg of pIC were used for each 100 μl injection.\nPrimer immunizations were given subcutaneously (s.c.) into the tail base (day 0) with one booster dose after 2 weeks (day 14). ELISpot analysis for IFNγ on splenocytes was performed, using standard protocols, […] after booster dose administration (day 21). Splenocytes (10^6 cells/well) were activated with 5 μg/well of G12D sequence 18mer (aa4-21)→YKLVVVGADGVGKSALTI (SEQ ID NO:1)."}, "[5]": {"test_system": "splenocytes", "experiment": "ELISpot analysis for IFNγ on splenocytes of immunized mice (Example 2, KRas G12R and G12V)", "type": "in vivo, C57BL/6 mice", "settings": "in combination with aCpG 5 nmol; peptide 20 μg s.c. day 0 + booster d14; splenocytes activated with G12V or G12R 18mer 5 μg/well", "procedure": "as §2"}, "[6]": {"settings": "in combination with aCpG 5 nmol"}, "[7]": {"settings": "in combination with aCpG 5 nmol, peptide 20 μg s.c. tail base day 0 + booster day 14"}}, "note": "Entries after “also recorded” stand apart in the source; their conditions may differ.", "data": [{"substance": "DSPE-amido-dPEG24-amido-dPEG24-CYKLVVVGADGVGKSALTI [aKRas G12D]", "values": [{"measurement": "KRas-specific CD8+ T-cell response (9mers)", "setting": "[1]; [6]", "result": "KRas-specific CD8^+ T-cell response"}, {"measurement": "CD8+ or CD4+ T-cell response (18mer)", "setting": "[1]; [6]", "result": "CD8′ or CD4*T-cell response; also recorded: CD8^+ or CD4^+ T-cell response"}, {"measurement": "inducing KRAS-specific splenic T-cells in mice", "setting": "[2]", "result": "effective"}, {"measurement": "KRas-specific CD8+ T-cell response", "setting": "[3]; [6]", "result": "KRas-specific CD8′ T-cell response; also recorded: KRas-specific CD8^+ T-cell response"}, {"measurement": "activation of splenocytes (ELISpot for IFNγ)", "setting": "[4]; [7]", "result": "activated splenocytes"}]}, {"substance": "YKLVVVGADGVGKSALTI [soluble KRas G12D]", "values": [{"measurement": "KRas-specific CD8+ T-cell response (9mers)", "setting": "[1]; in combination with CpG", "result": "not"}, {"measurement": "CD8+ or CD4+ T-cell response (18mer)", "setting": "[1]; in combination with CpG", "result": "not"}, {"measurement": "KRas-specific CD8+ T-cell response", "setting": "[3]; in combination with CpG", "result": "not"}, {"measurement": "activation of splenocytes (ELISpot for IFNγ)", "setting": "[4]; [7]", "result": "did not"}, {"measurement": "activation of splenocytes (ELISpot for IFNγ)", "setting": "[4]; in combination with pIC 50 μg, peptide 20 μg s.c. day 0 + booster day 14", "result": "did not"}]}, {"substance": "YKLVVVGAGGVGKSALTI [soluble wild-type KRas]", "values": [{"measurement": "KRas-specific CD8+ T-cell response", "setting": "[3]; in combination with CpG", "result": "not"}]}, {"substance": "YKLVVVGARGVGKSALTI [soluble KRas G12R]", "values": [{"measurement": "activation of splenocytes (ELISpot for IFNγ)", "setting": "[5]", "result": "did not"}]}, {"substance": "YKLVVVGAVGVGKSALTI [soluble KRas G12V]", "values": [{"measurement": "activation of splenocytes (ELISpot for IFNγ)", "setting": "[5]", "result": "did not"}]}]}
